Test results reported in patent US11833204B2, “Visible light-activatable nanoparticles for cancer immunotherapy and use thereof” (KOREA INSTITUTE OF SCIENCE AND TECHNOLOGY, priority 2021, dated 2023).

Experiments:
[1] = ROS generation under 671 nm laser (RNO test); details: 10 μM, 671 nm laser 40 mW 250 sec
Procedure: ROS generation was analyzed by RNO test, where bleaching of N-nitrosodimethylaniline (RNO) by ROS was observed as a decrease in absorbance at 440 nm.
To determine the reactivity of the self-assembled nanoparticles (LT-NPs) to visible light, experimental samples and a comparative sample were prepared as follows. Each sample was mixed with a 10 μM RNO standard solution and irradiated with visible light using a 671 nm laser (SDL-671 series, Shanghai Dream Laser Technology Co., Ltd.) at a power of 40 mW for 250 sec. Absorbances were measured at 440 nm over time while being irradiated with visible light.
Control sample (VPF, control): Verteporfin (VPF) (10 μM) was mixed with physiological saline (1 mL).
Experimental sample 1 (LT-NPs(-Cat-B)): The self-assembled nanoparticles (LT-NPs) (10 μM) prepared in Example 1 were mixed with physiological saline (1 mL).
Experimental sample 2 (LT-NPs(+Cat-B)): The self-assembled nanoparticles (LT-NPs) (10 μM) prepared in Example 1 were mixed with distilled water (200 μL) containing cathepsin B (10 μg) and 1.2 mM histidine. […]
First, the absorbance before laser irradiation was defined as 1 and reduction rates of the absorbance values measured at 440 nm with respect to the absorbance before laser irradiation were calculated. The calculated values were transformed into negative natural logs (−In(y)), which were then multiplied by 100. […]

CT26 cells [2] = assay: Immunogenic cell death: extracellular ATP release; assay type: cell-based; details: CT26, 5 μM, 24 h, +L/−L
Procedure: (§1) First, CT26 cells were plated in 35 mm cell culture dishes at a density of 1×10^5 cells/dish and doxorubicin (DOX) (5 μM), verteporfin (VPF) (5 μM) or the self-assembled nanoparticles (LT-NPs) (5 μM) were added to each dish. After 24-h culture, one half was exposed by irradiation with visible light using a 671 nm laser at 40 mW for 250 sec (+L) and the other half was not irradiated with visible light for comparison (−L). The immunogenic cell death of the self-assembled nanoparticles (LT-NPs) was evaluated using the cells and the cell culture media.
ATP was analyzed using a commercially available ATP assay kit (Beyotime Biotechnology) according to the manufacturer's protocol.

cathepsin B = cathepsin B (Homo sapiens, UniProt P07858); assay: Cleavage of LT-NPs by cathepsin B (RP-HPLC, fluorescence, TEM); assay type: biochemical
Procedure: The self-assembled nanoparticles (LT-NPs) prepared in Example 1, doxorubicin (DOX), and verteporfin (VPF) were used as samples. 1 mg of each sample was mixed with physiological saline (1 mL). […] The self-assembled nanoparticles (LT-NPs) were mixed with cathepsin B (Cat-B) protease (50 μg/mL). The mixture was allowed to react for 24 h.
In this example, the activation of the self-assembled nanoparticles (LT-NPs) by cathepsin B (Cat-B) was determined. To this end, an experimental sample and a comparative sample were prepared and allowed to react in an incubator at 37° C. Specific cleavages by cathepsin B were evaluated at reaction times of 0, 9, and 24 h by reversed phase high-performance liquid chromatography (RT-HPLC).
Experimental sample (Cat-B): The self-assembled nanoparticles (LT-NPs) (10 μM) prepared in Example 1 were mixed with a 2-(N-morpholine)-ethanesulphonic acid (MES) buffer (200 μL) containing cathepsin B (10 μg).
Comparative sample (Cat-B+inhibitor): The self-assembled nanoparticles (LT-NPs) (10 μM) prepared in Example 1 were mixed with a 2-(N-morpholine)-ethanesulphonic acid (MES) buffer (200 μL) containing cathepsin B (10 μg) and a cathepsin B inhibitor (Z-FA-FMK, 50 μM).

H9C2 cells = assay: Intracellular behaviour in H9C2 cardiomyocytes (confocal microscopy); assay type: cell-based; details: H9C2, 5 μM, 24 h
Procedure: The following experiment was conducted to evaluate the intracellular behaviors of the self-assembled nanoparticles (LT-NPs). First, 1×10^5 CT26 cells or H9C2 cells were plated in a 35 mm cell culture dish, treated with the self-assembled nanoparticles (LT-NPs, 5 μM) prepared in Example 1, and cultured for 24 h. Thereafter, cells were washed with Dulbecco's PBS (DPBS), fixed in 4% formaldehyde for 10 min, stained with 4′,6-diamidino-2-phenylindole (DAPI) for 5 min, and analyzed with a Leica TCS SP8 confocal microscope (Leica Microsystems GmbH).

CT26 cells [3] = assay: Immunogenic cell death: extracellular HSP70 and HMGB1 (Western blotting); assay type: cell-based; details: CT26, 5 μM, 24 h, +L/−L
Procedure: as §1
Before staining the cells with APC-conjugated CRT antibody, culture media were separated from the cells and the extracellular expression levels of HMGB1 and HSP70 were analyzed by Western blotting.
Each cell culture medium was treated with RIPA buffer (Cell Signaling Technology) at 4° C. for 30 min and the protein amount of the lysate was analyzed using a Pierce BCA protein assay kit (Thermo Fisher Scientific) according to the manufacturer's protocol. After SDS-PAGE, proteins were transferred to a PVDF membrane (Bio-Rad), which was then treated with Tris-buffered saline (TBS-T) containing 5% skim milk and 0.1% Tween-20. The membrane was incubated with primary antibodies at 4° C. overnight. HSP70 and HMGB1 antibodies were used as the primary antibodies. The membrane was washed with TBS-T and incubated with a secondary antibody at room temperature for 1 h. The membrane was washed with TBS-T, treated with EZ-Western Lumi Pico or Femto reagent (DoGen), and analyzed using Fusion-Solo software (Vilber) according to the manufacturer's protocol to determine band intensities.

CT26 cells [4] = assay: CT26 cell viability (CCK) after visible light irradiation; assay type: cell-based; details: CT26, 0-10 μM, 24 h, 671 nm laser 40 mW 250 sec
Procedure: After CT26 cells were plated in a 96-well plate at a density of 5×10^3 cells/well, the wells were treated with doxorubicin (DOX) (0, 0.01, 0.1, 1, and or 10 μM), verteporfin (VPF) (0, 0.01, 0.1, 1, and 10 μM), mixtures thereof (DOX+VPF), and the self-assembled nanoparticles (LT-NPs) (0, 0.01, 0.1, 1, and 10 μM). After culture for 24 h, cells were exposed by irradiation with visible light using a 671 nm laser at 40 mW for 250 sec. Then, a cell culture medium containing […] of CCK solution was added to each well. Cells were further cultured for 20 min and the absorbance of the 96-well plate was measured at 450 nm on a VERSAmax™ microplate reader (Molecular Devices Corp., Sunnyvale, Calif.).

C=CC1=C(C)/C2=C/C3=NC(Cc4[nH]c(c(CCCCC(=O)OC)c4C)CC4N=C(CC1N2)C(C)=C4CCC(=O)N[C@H](Cc1ccccc1)C(=O)N[C@@H](CCCNC(=N)N)C(=O)N[C@H](CCCNC(=N)N)C(=O)NCC(=O)NC1C[C@@H](OC2C[C@](O)(C(=O)CO)Cc4c(O)c5c(c(O)c42)C(=O)c2c(OC)cccc2C5=O)O[C@@H](C)[C@H]1O)[C@@]1(C)C3=CC=C(C(=O)OC)[C@@H]1C(=O)OC (stereo partly shown) [LT-NPs, VPF-FRRG(SEQ ID NO: 1)-DOX]
amount of ROS generated, relative to verteporfin (VPF) ([1]; cleaved with cathepsin B): 80% | reactivity with visible light (ROS generation), stable state ([1]; without Cat-B): hardly reactive with visible light | ATP release (CT26 cells [2]): significantly higher | cleavage by cathepsin B (cathepsin B; 10 μM, cathepsin B 10 μg in MES buffer, 37° C., RP-HPLC and fluorescence): cleaved by cathepsin B to release doxorubicin and the photosensitizer | morphology after reaction with cathepsin B (TEM) (cathepsin B; Cat-B 50 μg/mL, 24 h): degraded by cathepsin B | presence in cells (H9C2 cells): observed in both cardiomyocytes (H9C2) and cancer cells (CT26) | state in normal cells (H9C2 cells): in a stable state in normal cells | HMGB-1 release (CT26 cells [3]): significantly higher | HSP70 release (CT26 cells [3]): significantly higher | cell viability versus doxorubicin and verteporfin (CT26 cells [4]): no significant differences
